pKi: −log10 of the molar value. Where “and” joins values, the source holds several entries; their conditions need not be identical. Identical values can stand only once.
What follows are molecules tested against T1, Neuropeptide Y receptor type 1 (Homo sapiens, UniProt P25929) (assay: Binding affinity at cloned Neuropeptide Y receptor type 1 expressed in AV-12 cells is evaluated.).
T1 sequence (P25929 whole entry): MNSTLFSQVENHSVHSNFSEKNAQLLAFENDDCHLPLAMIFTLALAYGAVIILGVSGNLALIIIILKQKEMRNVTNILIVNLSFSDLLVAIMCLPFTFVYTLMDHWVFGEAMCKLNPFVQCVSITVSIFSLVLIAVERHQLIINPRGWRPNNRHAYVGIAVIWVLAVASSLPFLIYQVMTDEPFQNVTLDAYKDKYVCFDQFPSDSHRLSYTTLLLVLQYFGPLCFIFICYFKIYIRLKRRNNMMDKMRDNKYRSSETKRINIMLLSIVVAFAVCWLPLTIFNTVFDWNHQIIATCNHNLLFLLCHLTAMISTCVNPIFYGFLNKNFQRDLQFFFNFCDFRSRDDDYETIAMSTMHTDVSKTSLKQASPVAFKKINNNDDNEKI
Format: cell-based, AV12

| pKi | Compound |
| --- | --- |
| 8.70 | Clc1ccc(OCc2nc3c(OCCCN4CCCCC4)cccc3n2CCCC2CCCNC2)cc1 (stereo unspecified) |

The molecules below were run against T1, Neuropeptide Y receptor type 1 (assay: Binding affinity at cloned Neuropeptide Y-1 receptor expressed in AV-12 cells is evaluated.).
Format: cell-based, AV12

| pKi | Compound |
| --- | --- |
| 6.59 | Cc1cccc2c1nc(COc1ccc(Cl)cc1)n2CCCC1CCN(C(=O)CCN2CCCCC2)CC1 |
| 5.79 | Cc1cccc2c1nc(COc1ccc(Cl)cc1)n2CCCC1CCN(CCCC(=O)O)CC1 |
| 7.28 and 8.24 | Cc1cccc2c1nc(COc1ccc(Cl)cc1)n2CCCC1CCN(CCCCN2CCCCC2)CC1 |
| 7.68 | Cc1cccc2c1nc(COc1ccc(Cl)cc1)n2CCCC1CCN(CCCC(=O)N2CCCCC2)CC1 |
| 8.35 | Cc1cccc2c1nc(COc1ccc(Cl)cc1)n2CCCC1CCN(CCCN2CCCCC2)CC1 |
| 7.43 | Cc1cccc2c1nc(COc1ccc(Cl)cc1)n2CCCC1CCN(CCN2CCCCC2)CC1 |
| 6.87 | Cc1cccc2c1nc(COc1ccc(Cl)cc1)n2CCCC1CCN(CC(=O)N2CCCCC2)CC1 |

More lines, now with the values behind:

| Compound | pKi |
| --- | --- |
| Cc1cccc2c1nc(COc1ccc(Cl)cc1)n2CCCC1CCN(CCc2ccccc2)CC1 | 7.54 |
| Cc1cccc2c1nc(COc1ccc(Cl)cc1)n2CCCC1CCN(CCCC(N)=O)CC1 | 7.06 |
| CCCN1CCC(CCCn2c(COc3ccc(Cl)cc3)nc3c(C)cccc32)CC1 | 7.54 |
| CCOC(=O)CCCN1CCC(CCCn2c(COc3ccc(Cl)cc3)nc3c(C)cccc32)CC1 | 7.54 |
| Cc1cccc2c1nc(COc1ccc(Cl)cc1)n2CCCC1CCN(CCC(C)C)CC1 | 7.96 |
| Cc1cccc2c1nc(COc1ccc(Cl)cc1)n2CCCC1CCN(CCCc2ccccc2)CC1 | 7.24 |
| Cc1cccc2c1nc(COc1ccc(Cl)cc1)n2CCCC1CCN(C)CC1 | 7.28 |
| Cc1cccc2c1nc(COc1ccc(Cl)cc1)n2CCCC1CCNCC1 | 6.47 |
| Cc1cccc2c1nc(COc1ccc(Cl)cc1)n2CCCC1CCN(Cc2ccccc2)CC1 | 6.96 |
| CCOC(=O)CN1CCC(CCCn2c(COc3ccc(Cl)cc3)nc3c(C)cccc32)CC1 | 6.37 |
| Cc1cccc2c1nc(COc1ccc(Cl)cc1)n2CCCC1CCN(CC(=O)O)CC1 | 5.66 |

These molecules were tested on SK-N-MC (assay: Inhibition of NPY induced intracellular Ca++ mobilization in SK-N-MC cells is evaluated.).
Format: functional, cell-based, Homo sapiens

| Compound | pKi |
| --- | --- |
| Cc1cccc2c1nc(COc1ccc(Cl)cc1)n2CCCC1CCN(CCCN2CCCCC2)CC1 | 7.59 |

What follows are molecules tested on SK-N-MC (assay: Tested to reverse NPY induced inhibition of forskolin-stimulated cAMP in SK-N-MC cells is evaluated.).
Format: functional, cell-based, Homo sapiens

| Compound | pKi |
| --- | --- |
| Cc1cccc2c1nc(COc1ccc(Cl)cc1)n2CCCC1CCN(CCCN2CCCCC2)CC1 | 7.34 |
